In patent publication US10028934B2, “Substituted indazole derivatives active as kinase inhibitiors” (NERVIANO MEDICAL SCIENCES S.R.L., priority 2011, dated 2018):
Where a name gives a salt, the structure may show the parent alone.

What was measured:
MOLM-13 cells = assay: In vitro cell proliferation assay, MOLM-13 (CellTiter-Glo); format: cell-based; settings: human acute leukemia cells bearing FLT3-ITD mutation, 72 h
Method: (§1) The human acute leukemia MOLM-13 AND MV-4-11 cells, bearing a FLT3-ITD mutation, were seeded (5000 cells/well) in white 384 well-plates in complete medium (RPMI 1640 plus 10% Fetal bovine serum) and treated with compounds dissolved in 0.1% DMSO, 24 h after seeding. The cells were incubated at 37° C. and 5% CO2 and after 72 h the plates were processed using CellTiter-Glo assay (Promega) following the manufacturer's instruction.
(§2) CellTiter-Glo is a homogenous method based on the quantification of the ATP present, an indicator of metabolitically active cells. ATP was quantified using a system based on luciferase and D-luciferin resultant into light generation. The luminescent signal was proportional to the number of cells present in culture. Briefly, 25 microL/well reagent solution were added to each well and, after 5 minutes shaking, microplates were read by Envision (PerkinElmer) luminometer. Inhibitory activity was evaluated comparing treated versus control data using Symyx Assay Explorer (Symyx Technologies Inc.) program. IC50 was calculated using sigmoidal interpolation curve.

MV-4-11 cells = assay: In vitro cell proliferation assay, MV-4-11 (CellTiter-Glo); format: cell-based; settings: MV4-11; human acute leukemia cells bearing FLT3-ITD mutation, 72 h
Method: as §1, §2

[1] = target: KIT kinase (GST-KIT cytoplasmic domain) (Homo sapiens (Human), UniProt P10721); assay: Biochemical assay for inhibitors of KIT kinase activity; settings: pre activated enzyme 4 nM, 4.4 microM ATP, 60 minutes at r.t.
Sequence of KIT kinase (GST-KIT cytoplasmic domain) (P10721 544-976): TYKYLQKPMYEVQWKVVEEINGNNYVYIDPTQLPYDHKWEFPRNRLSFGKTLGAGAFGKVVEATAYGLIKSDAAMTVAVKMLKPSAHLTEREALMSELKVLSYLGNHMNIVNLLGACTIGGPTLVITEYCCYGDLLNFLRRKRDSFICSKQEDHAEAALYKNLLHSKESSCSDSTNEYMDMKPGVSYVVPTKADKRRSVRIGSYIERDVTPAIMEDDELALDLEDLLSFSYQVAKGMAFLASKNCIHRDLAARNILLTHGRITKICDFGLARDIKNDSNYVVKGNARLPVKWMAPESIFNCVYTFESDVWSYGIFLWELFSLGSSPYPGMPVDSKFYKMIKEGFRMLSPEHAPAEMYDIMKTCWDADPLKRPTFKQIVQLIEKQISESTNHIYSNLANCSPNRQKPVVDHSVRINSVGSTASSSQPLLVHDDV
Method: The GST-KIT cytoplasmic domain has been expressed in Sf21 cells infected for 66 hrs at 27° C. The recombinant protein has been purified by affinity on GSH-sepharose and eluted with glutathione. […] At the end of the phosphorylation reaction, the not reacted ATP, cold and radioactive, was captured by an excess of dowex ion exchange resin that eventually settled by gravity to the bottom of the reaction plate. […] 500 g of wet resin (SIGMA, custom prepared resin DOWEX 1×8 200-400 mesh, 2.5 Kg) were weighed out and diluted to 2 L in 150 mM sodium formate, pH 3.00. The resin was allowed to settle down overnight and then the supernatant was discarded. After three washes as above over a couple of days, the resin was allowed to settle and two volumes (with respect to the resin volume) were added of 150 mM sodium formate buffer. […] NO: 2). The peptide was purchased from American Peptide Company (Sunnyvale, Calif.). […] An automated station for serial dilutions (Biomek FX, Beckman) was used for producing 1:3 dilutions in 100% DMSO, from line A1 to A10, and for all the compounds in the column. […] The following dispensation into the plates plus 3 cycles of mixing, done by the robot itself, started the kinase reaction. At this point, the correct concentrations were restored for all the reagents. […]

Structure (SMILES) | IC50 (MOLM-13 cells) | IC50 (MV-4-11 cells) | IC50 [1]
CN1CCN(c2ccc(C(=O)Nc3n[nH]c4cc(Oc5ccc(OCc6ccccc6)cc5)ccc34)cc2)CC1 [Cpd. 4, N-[6-(4-Benzyloxy-phenoxy)-1H-indazol-3-yl]-4-(4-methyl-piperazin-1-yl)-benzamide] | 92 nM | < 50 nM | –
CN1CCN(c2ccc(C(=O)Nc3n[nH]c4cc(Oc5cccc(F)c5)ccc34)cc2)CC1 [Cpd. 3, N-[6-(3-Fluoro-phenoxy)-1H-indazol-3-yl]-4-(4-methyl-piperazin-1-yl)-benzamide] | 990 nM | 987 nM | –
CN(C)CCN(C)c1ccc(C(=O)Nc2n[nH]c3cc(OCCOCc4ccccc4)ccc23)cc1 [Cpd. 16, N-[6-(2-Benzyloxy-ethoxy)-1H-indazol-3-yl]-4-[(2-dimethylamino-ethyl)-methyl-amino]-benzamide] | < 50 nM | < 50 nM | –
O=C(Nc1n[nH]c2cc(OCCOCc3ccccc3)ccc12)c1ccc(N2CC(N3CCCC3)C2)cc1 [Cpd. 28, N-[6-(2-Benzyloxy-ethoxy)-1H-indazol-3-yl]-4-(3-pyrrolidin-1-yl-azetidin-1-yl)-benzamide] | < 50 nM | < 50 nM | –
CN(C)C1CCN(c2ccc(C(=O)Nc3n[nH]c4cc(OCCOCc5ccccc5)ccc34)cc2)CC1 [Cpd. 15, N-[6-(2-Benzyloxy-ethoxy)-1H-indazol-3-yl]-4-(4-dimethylamino-piperidin-1-yl)-benzamide] | < 50 nM | < 50 nM | –
O=C(Nc1n[nH]c2cc(OCCOCc3ccccc3)ccc12)c1ccc(NCCN2CCOCC2)cc1 [Cpd. 25, N-[6-(2-Benzyloxy-ethoxy)-1H-indazol-3-yl]-4-(2-morpholin-4-yl-ethylamino)-benzamide hydrochloride] | < 50 nM | < 50 nM | –
CN1CCN(c2ccc(C(=O)Nc3n[nH]c4cc(OCCOCc5ccc(C(F)(F)F)cc5)ccc34)cc2)CC1 [Cpd. 33, 4-(4-Methyl-piperazin-1-yl)-N-{6-[2-(4-trifluoromethyl-benzyloxy)-ethoxy]-1H-indazol-3-yl}-benzamide] | < 50 nM | < 50 nM | 50 nM
CN1CCN(c2ccc(C(=O)Nc3n[nH]c4cc(OCCOCc5ccc(F)cc5)ccc34)cc2)CC1 [Cpd. 32] | < 50 nM | < 50 nM | 50 nM
CN(C)CCCN(C)c1ccc(C(=O)Nc2n[nH]c3cc(OCCOCc4ccccc4)ccc23)cc1 [Cpd. 17, N-[6-(2-Benzyloxy-ethoxy)-1H-indazol-3-yl]-4-[(3-dimethylamino-propyl)-methyl-amino]-benzamide] | 87 nM | < 50 nM | –
CN(C)Cc1ccc(C(=O)Nc2n[nH]c3cc(OCCOCc4ccccc4)ccc23)cc1 [Cpd. 21, N-[6-(2-Benzyloxy-ethoxy)-1H-indazol-3-yl]-4-dimethylaminomethyl-benzamide] | 68 nM | – | –
CN1CCC(Oc2ccc(C(=O)Nc3n[nH]c4cc(OCCOCc5ccccc5)ccc34)cc2)CC1 [Cpd. 22, N-[6-(2-Benzyloxy-ethoxy)-1H-indazol-3-yl]-4-(1-methyl-piperidin-4-yloxy)-benzamide] | 65 nM | < 50 nM | –
CN1CCN(c2ccc(C(=O)Nc3n[nH]c4cc(OCCOCc5cccc(C(F)(F)F)c5)ccc34)cc2)CC1 [Cpd. 34, 4-(4-Methyl-piperazin-1-yl)-N-{6-[2-(3-trifluoromethyl-benzyloxy)-ethoxy]-1H-indazol-3-yl}-benzamide] | < 50 nM | < 50 nM | –
CN1CCN(c2ccc(C(=O)Nc3n[nH]c4cc(OC/C=C/c5ccccc5)ccc34)cc2)CC1 [Cpd. 39, 4-(4-Methyl-piperazin-1-yl)-N-[6-((E)-3-phenyl-allyloxy)-1H-indazol-3-yl]-benzamide] | 81 nM | 50 nM | –
CN1CCN(c2ccc(C(=O)Nc3n[nH]c4cc(OCc5ccccc5)ccc34)cc2)CC1 [Cpd. 1, N-(6-Benzyloxy-1H-indazol-3-yl)-4-(4-methyl-piperazin-1-yl)-benzamide] | 789 nM | 683 nM | –
C[N+]1([O-])CCN(c2ccc(C(=O)Nc3n[nH]c4cc(OCCOCc5ccccc5)ccc34)cc2)CC1 [Cpd. 14, N-[6-(2-Benzyloxy-ethoxy)-1H-indazol-3-yl]-4-(4-methyl-4-oxy-piperazin-1-yl)-benzamide] | < 50 nM | < 50 nM | –
COc1ccc(COCCOc2ccc3c(NC(=O)c4ccc(N5CCN(C)CC5)cc4)n[nH]c3c2)cc1 [Cpd. 40, N-{6-[2-(4-Methoxy-benzyloxy)-ethoxy]-1H-indazol-3-yl}-4-(4-methyl-piperazin-1-yl)-benzamide] | < 50 nM | < 50 nM | –
CN1CCN(c2ccc(C(=O)Nc3n[nH]c4cc(OCCOCc5ccccc5)ccc34)c(N3CCN(C)CC3)c2)CC1 [Cpd. 43, N-[6-(2-Benzyloxy-ethoxy)-1H-indazol-3-yl]-2,4-bis-(4-methyl-piperazin-1-yl)-benzamide] | 240 nM | 118 nM | –
CN1CCN(c2ccc(C(=O)Nc3n[nH]c4cc(Oc5ccc(Oc6ccccc6)cc5)ccc34)cc2)CC1 [Cpd. 8, 4-(4-Methyl-piperazin-1-yl)-N-[6-(4-phenoxy-phenoxy)-1H-indazol-3-yl]-benzamide] | 1980 nM | 2750 nM | –
CN1CCN(c2ccc(C(=O)Nc3n[nH]c4cc(Oc5cccc(OCc6ccccc6)c5)ccc34)cc2)CC1 [Cpd. 9, N-[6-(3-Benzyloxy-phenoxy)-1H-indazol-3-yl]-4-(4-methyl-piperazin-1-yl)-benzamide] | 245 nM | 101 nM | –
CN1CCN(c2ccc(C(=O)Nc3n[nH]c4cc(OCC#Cc5ccccc5)ccc34)cc2)CC1 [Cpd. 7, 4-(4-Methyl-piperazin-1-yl)-N-[6-(3-phenyl-prop-2-ynyloxy)-1H-indazol-3-yl]-benzamide] | 240 nM | 110 nM | –
CN1CCN(c2ccc(C(=O)Nc3n[nH]c4cc(Oc5ccccc5)ccc34)cc2)CC1 [Cpd. 2, 4-(4-Methyl-piperazin-1-yl)-N-(6-phenoxy-1H-indazol-3-yl)-benzamide] | 1160 nM | 1480 nM | –
CN1CCN(c2ccc(C(=O)Nc3n[nH]c4cc(OCCOCc5ccccc5)ccc34)c(F)c2)CC1 [Cpd. 38, N-[6-(2-Benzyloxy-ethoxy)-1H-indazol-3-yl]-2-fluoro-4-(4-methyl-piperazin-1-yl)-benzamide] | < 50 nM | < 50 nM | –
CN1CCN(c2ccc(C(=O)Nc3n[nH]c4cc(OCCOc5ccccc5)ccc34)cc2)CC1 [Cpd. 10, 4-(4-Methyl-piperazin-1-yl)-N-[6-(2-phenoxy-ethoxy)-1H-indazol-3-yl]-benzamide] | 139 nM | 118 nM | –
CN1CCN(c2ccc(C(=O)Nc3n[nH]c4cc(OCCOCc5ccccc5)ccc34)cc2)CC1 [Cpd. 11, N-[6-(2-Benzyloxy-ethoxy)-1H-indazol-3-yl]-4-(4-methyl-piperazin-1-yl)-benzamide] | < 50 nM | < 50 nM | –
CN1CCC(Nc2ccc(C(=O)Nc3n[nH]c4cc(OCCOCc5ccccc5)ccc34)cc2)CC1 [Cpd. 19, N-[6-(2-Benzyloxy-ethoxy)-1H-indazol-3-yl]-4-(1-methyl-piperidin-4-ylamino)-benzamide] | < 50 nM | < 50 nM | –
CN1CCC(CNc2ccc(C(=O)Nc3n[nH]c4cc(OCCOCc5ccccc5)ccc34)cc2)CC1 [Cpd. 27, N-[6-(2-Benzyloxy-ethoxy)-1H-indazol-3-yl]-4-[(1-methyl-piperidin-4-ylmethyl)-amino]-benzamide] | < 50 nM | < 50 nM | –
CN1CCN(c2ccc(C(=O)Nc3n[nH]c4cc(OC5CCN(Cc6ccccc6)CC5)ccc34)cc2)CC1 [Cpd. 6, N-[6-(1-Benzyl-piperidin-4-yloxy)-1H-indazol-3-yl]-4-(4-methyl-piperazin-1-yl)-benzamide] | 673 nM | 163 nM | –
CN1CCN(c2ccc(C(=O)Nc3n[nH]c4cc(OCc5cccc(Oc6ccccc6)c5)ccc34)cc2)CC1 [Cpd. 5, 4-(4-Methyl-piperazin-1-yl)-N-[6-(3-phenoxy-benzyloxy)-1H-indazol-3-yl]-benzamide] | 557 nM | 513 nM | –
CN1CCN(c2cccc(C(=O)Nc3n[nH]c4cc(OCCOCc5ccccc5)ccc34)c2)CC1 [Cpd. 29, N-[6-(2-Benzyloxy-ethoxy)-1H-indazol-3-yl]-3-(4-methyl-piperazin-1-yl)-benzamide hydrochloride] | < 50 nM | < 50 nM | –
